For assay [1], the target named is T1, Human recombinant CypD (Homo sapiens, UniProt P30405).
T1 construct: purchased Atgen
As to the kind of experiment: α-chymotrypsin-coupled PPIase assay, CypD isomerase activity. Format: biochemical. The conditions noted are these: IC50, neutralization of the isomerase activity of CypD, 5°C, 10 concentrations 0.05–1000 nM. The procedure:
Inhibition of CypA and CypD isomerase activities were quantified using a α-chymotrypsin-coupled assay adapted to a 96-well plate format. Human recombinant CypA or CypD (Atgen) was dissolved to 10 nM in PPIases buffer (50 mM Hepes, 100 mM NaCl, 1 mg/ml bovine serum albumin, 1 mg/ml α-chymotrypsin; pH 8). Succinyl-AAPF-pNA peptide substrate (Sigma) was dissolved to 3.2 mM in LiCl/trifluoroethanol. Each CypI was prepared at 10 concentrations in DMSO, then diluted into CypA/D PPIase buffer to 0.05–1000 nM. Incubations were performed at 5°C. Ninety five μL of reaction mix was added to 5 μL peptide in 96-wells and OD405 nm measured at 6-sec intervals for 6 min using a Biotek Synergy H4 plate reader. Data were fitted with Graphpad Prism 6.0 to acquire first-order rate constants, which were calculated by subtracting the rate constant from uncatalyzed reactions (no CypA/D). The catalytic rate constants were plotted as a function of inhibitor concentration to obtain IC50s.
The inhibition of the isomerase activities of CypA and CypD were measured with 10 increasing concentrations of STG-175 to quantify IC50 values.
Fig 1 Anti-PPIase and immunosuppressive activities of STG-175. A. Structures of cyclophilin inhibitors. Inhibition of CypA (B) and CypD (C) isomerase activities were assessed using the α-chymotrypsin-coupled assay. Each test compound was prepared at 10 concentrations (0.05–1000 nM). All solutions were equilibrated, and reactions conducted at 5°C. Reactions were initiated by mixing 95 μL reaction mix with 5 μL of the peptide to be cleaved and measuring OD405 nm at 6-sec intervals for 6 min. […] Enzyme catalyzed rate constants were calculated by subtracting the rate constant from uncatalyzed reactions (no CypA/D), and catalytic rate constants plotted as a function of inhibitor concentration to obtain IC50s. […] D. IL-2 promoter activation upon T-cell stimulation was determined using an engineered Jurkat T-cell line, which expresses betagalactosidase. […] The Y-axis values are expressed as percentage of activity. Data expressed as EC50s are representative of two independent experiments.

In assay [2] the test system is HCV GT1a, GT1b, GT2a, GT3a and GT4a replicons. The experiment in a line: Panel of HCV replicon cell lines GT1a to 4a (summary statements). Format: cell-based. As to conditions: Hepatitis C virus, read-out: EC50 range among HCV GTs (GT1a to 4a), multi-genotypic anti-HCV activity. In general terms: Replicon systems follow genome replication, usually without infectious particles.

For assay [3], the system named is NS3i-resistant R155Q/A156T NS3 Con1 GT1b replicon. The experiment in a line: Electroporated Con1 RNA replication in Huh7.5.1 cells (RT-qPCR), R155Q/A156T NS3. It is filed as cell-based. The conditions noted are these: Hepatitis C virus, Huh-7.5.1, 192 h, read-out: EC50 R155Q/A156T NS3. The source says: The GT1b subgenomic firefly luciferase reporter replicon pFK-I389/NS3–3 was provided by R. Bartenschlager. The GT1B subgenomic NS3, NS5A and NS5B mutants were created via homologous recombination using the In-Fusion HD Cloning kit (Clontech) as we described previously. […] The in vitro transcription of wild-type and mutant Con1 RNA was accomplished using the T7 MEGAscript kit (Ambion) by following the manufacturer’s instructions. In vitro-transcribed RNAs were introduced into Huh7.5.1 cells by electroporation. Trypsinized cells were washed twice and resuspended in phosphate-buffered saline (PBS) (calcium-free and magnesium-free) at 1x 10^7 cells per ml. Ten micrograms of RNA for each mutant was mixed with 0.4 mL of cells in a 4-mm cuvette, and a Bio-Rad Gene Pulser system was used to deliver a single pulse at 0.27 kV, 100 ohms, and 960 μF. […] RNA transfection efficiency and HCV subgenomic replication were assessed by reverse transcription-quantitative PCR (RT-qPCR) and presented as genome equivalents (GE) per microgram of total RNA as described previously. We measured by RT-qPCR the replication of wild-type, STG-175-, NS5Ai-, NS3i- and NS5Bi-resistant mutants in the presence of increasing concentrations of SGT-175, daclatasvir, telaprevir, boceprevir and sofosbuvir over a period of 8 days.
Fig 5 Cross-resistance analyses. […] Data are expressed as log of GE/μg of total RNA. […]
Background: Real-time PCR tracks product formation cycle by cycle.

The source of these data is PMC4841536, “Characterization of the Anti-HCV Activities of the New Cyclophilin Inhibitor STG-175” (PLoS ONE, 2016).

pEC50, pIC50: −log10 of the molar value.

T1 sequence (P30405 30-207): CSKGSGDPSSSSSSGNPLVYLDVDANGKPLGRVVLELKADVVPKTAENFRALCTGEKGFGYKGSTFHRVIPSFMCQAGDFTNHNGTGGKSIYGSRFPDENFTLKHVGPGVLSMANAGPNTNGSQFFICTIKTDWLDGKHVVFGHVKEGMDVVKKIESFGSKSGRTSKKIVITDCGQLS

Turning to `CC=CCC(C)C(O)C1C(=O)NC(CC)C(=O)N(C)C(CSCCCCO)C(=O)N(C)C(CC(C)(C)O)C(=O)NC(C(C)C)C(=O)N(C)C(CC(C)C)C(=O)NC(C)C(=O)NC(C)C(=O)N(C)C(CC(C)C)C(=O)N(C)C(CC(C)C)C(=O)N(C)C(C(C)C)C(=O)N1C` (stereo not drawn) [STG-175], the pIC50 (commonly the IC50 on a negative log10 scale, so that one unit is a factor of ten) in assay [1] was 8.89. For the same molecule, the values for the pEC50 in assay [2] and in assay [3] were 7.41 to 7.94 and 7.87, respectively.
